Assay results reported in ChEMBL document CHEMBL1909046, “DrugMatrix in vitro pharmacology data”.

What was measured:
[1] = biological target: Tyrosine-protein kinase Lck (Homo sapiens, UniProt P06239); assay: DRUGMATRIX: Protein Tyrosine Kinase, LCK enzyme inhibition (substrate: Poly(Glu:Tyr)); type: cell-based, Insect cells; conditions: insect cells; Not Active = under 50% inhibition at 10 µM
[2] = biological target: T1, Alpha-1D adrenergic receptor (Homo sapiens, UniProt P25100); type: cell membranes, HEK293, Membrane; conditions: hek293; also: in other assays of this panel Not Active means under 50% inhibition at 10 µM
T1 sequence (P25100 whole entry): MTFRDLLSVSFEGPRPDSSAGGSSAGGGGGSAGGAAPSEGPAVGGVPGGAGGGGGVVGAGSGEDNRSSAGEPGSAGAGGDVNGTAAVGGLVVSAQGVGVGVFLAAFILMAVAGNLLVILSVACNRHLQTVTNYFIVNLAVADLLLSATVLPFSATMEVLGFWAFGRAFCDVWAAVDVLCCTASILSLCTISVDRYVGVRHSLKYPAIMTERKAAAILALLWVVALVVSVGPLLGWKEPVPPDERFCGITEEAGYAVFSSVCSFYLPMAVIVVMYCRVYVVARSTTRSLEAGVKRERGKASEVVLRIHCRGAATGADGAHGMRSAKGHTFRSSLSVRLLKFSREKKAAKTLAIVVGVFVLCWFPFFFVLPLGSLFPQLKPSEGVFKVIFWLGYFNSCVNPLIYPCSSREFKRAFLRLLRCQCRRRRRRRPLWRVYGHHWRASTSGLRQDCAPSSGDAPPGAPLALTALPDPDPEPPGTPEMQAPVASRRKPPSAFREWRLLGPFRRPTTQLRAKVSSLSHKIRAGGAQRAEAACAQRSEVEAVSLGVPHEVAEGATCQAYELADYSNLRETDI

B2 bradykinin receptor = biological target: T2, B2 bradykinin receptor (Homo sapiens, UniProt P30411); type: cell membranes, Membrane; conditions: chem-1; also: in other assays of this panel Not Active means under 50% inhibition at 10 µM
T2 sequence (P30411 whole entry): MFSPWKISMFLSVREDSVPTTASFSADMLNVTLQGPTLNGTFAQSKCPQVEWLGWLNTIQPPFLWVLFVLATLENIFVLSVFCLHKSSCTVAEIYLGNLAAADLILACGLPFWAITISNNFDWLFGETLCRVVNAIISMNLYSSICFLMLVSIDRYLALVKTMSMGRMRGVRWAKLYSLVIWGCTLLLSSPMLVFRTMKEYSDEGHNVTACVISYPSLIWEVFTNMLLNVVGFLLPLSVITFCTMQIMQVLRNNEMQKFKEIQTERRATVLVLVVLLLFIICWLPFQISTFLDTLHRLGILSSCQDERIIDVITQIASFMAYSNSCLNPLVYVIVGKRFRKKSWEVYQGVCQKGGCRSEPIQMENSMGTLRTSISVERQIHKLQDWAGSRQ

[3] = DRUGMATRIX: GABAA, Flunitrazepam, Central radioligand binding (ligand: [3H] Flunitrazepam); type: cell membranes, Rattus norvegicus, Wistar, Brain, Membrane; conditions: Not Active = under 50% inhibition at 10 µM
Progesterone receptor = biological target: T3, Progesterone receptor (Bos taurus, UniProt Q690N0); assay: DRUGMATRIX: Progesterone radioligand binding (ligand: [3H] R-5020); type: tissue-based, Uterus; conditions: Not Active = under 50% inhibition at 10 µM
T3 sequence (Q690N0 whole entry): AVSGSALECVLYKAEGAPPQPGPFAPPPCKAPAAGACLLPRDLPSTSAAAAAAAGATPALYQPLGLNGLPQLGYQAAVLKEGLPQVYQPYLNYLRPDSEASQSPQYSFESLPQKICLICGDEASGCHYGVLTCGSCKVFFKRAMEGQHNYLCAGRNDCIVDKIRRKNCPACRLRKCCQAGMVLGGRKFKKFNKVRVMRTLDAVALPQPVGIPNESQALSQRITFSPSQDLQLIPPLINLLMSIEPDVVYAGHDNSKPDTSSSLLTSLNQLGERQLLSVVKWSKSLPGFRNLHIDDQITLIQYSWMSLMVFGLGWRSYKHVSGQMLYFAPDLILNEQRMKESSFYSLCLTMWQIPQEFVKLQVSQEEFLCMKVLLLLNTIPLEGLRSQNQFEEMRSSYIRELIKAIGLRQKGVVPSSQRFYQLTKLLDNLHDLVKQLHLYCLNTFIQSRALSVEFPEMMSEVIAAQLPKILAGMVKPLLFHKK

[4] = biological target: T4, 5-hydroxytryptamine receptor 2C (Homo sapiens, UniProt P28335); assay: DRUGMATRIX: Serotonin (5-Hydroxytryptamine) 5-HT2C radioligand binding (ligand: [3H] Mesulergine); type: cell membranes, CHO-K1, Membrane; conditions: cho-k1; Not Active = under 50% inhibition at 10 µM
T4 sequence (P28335 whole entry): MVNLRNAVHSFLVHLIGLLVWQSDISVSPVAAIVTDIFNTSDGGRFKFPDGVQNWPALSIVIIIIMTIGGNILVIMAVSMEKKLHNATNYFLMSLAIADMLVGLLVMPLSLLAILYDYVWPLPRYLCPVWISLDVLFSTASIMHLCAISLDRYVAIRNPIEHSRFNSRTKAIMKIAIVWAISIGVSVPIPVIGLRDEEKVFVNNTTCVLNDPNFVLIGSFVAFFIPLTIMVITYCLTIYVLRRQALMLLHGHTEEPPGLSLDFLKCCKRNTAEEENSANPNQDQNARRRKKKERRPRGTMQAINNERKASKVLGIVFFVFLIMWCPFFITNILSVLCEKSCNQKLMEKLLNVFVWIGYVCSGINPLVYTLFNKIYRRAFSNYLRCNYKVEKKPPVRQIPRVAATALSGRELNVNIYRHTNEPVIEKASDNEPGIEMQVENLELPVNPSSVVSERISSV

[5] = DRUGMATRIX: Glutamate, AMPA radioligand binding (ligand: [3H] AMPA); type: cell membranes, Rattus norvegicus, Wistar, Cerebral cortex, Membrane; conditions: Not Active = under 50% inhibition at 10 µM
Interstitial collagenase = biological target: T5, Interstitial collagenase (Homo sapiens, UniProt P03956); type: tissue-based, Rheumatoid synovial fibroblasts;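 also: MMP-1 enzyme inhibition assay using a peptide substrate; in other assays of this panel Not Active means under 50% inhibition at 10 µM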
T5 sequence (P03956 whole entry): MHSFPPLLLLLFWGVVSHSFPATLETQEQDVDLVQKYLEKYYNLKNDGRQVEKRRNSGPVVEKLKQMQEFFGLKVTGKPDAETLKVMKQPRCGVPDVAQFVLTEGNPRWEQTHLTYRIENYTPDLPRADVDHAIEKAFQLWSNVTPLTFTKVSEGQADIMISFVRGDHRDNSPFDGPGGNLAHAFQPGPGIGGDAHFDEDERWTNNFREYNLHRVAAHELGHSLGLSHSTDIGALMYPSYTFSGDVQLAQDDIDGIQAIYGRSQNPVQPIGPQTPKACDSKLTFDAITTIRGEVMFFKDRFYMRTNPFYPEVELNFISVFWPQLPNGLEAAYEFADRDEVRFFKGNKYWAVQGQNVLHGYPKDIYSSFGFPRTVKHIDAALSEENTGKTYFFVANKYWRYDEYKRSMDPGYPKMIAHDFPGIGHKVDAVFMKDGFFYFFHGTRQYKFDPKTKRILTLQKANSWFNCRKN

Sequence of Tyrosine-protein kinase Lck (P06239 whole entry): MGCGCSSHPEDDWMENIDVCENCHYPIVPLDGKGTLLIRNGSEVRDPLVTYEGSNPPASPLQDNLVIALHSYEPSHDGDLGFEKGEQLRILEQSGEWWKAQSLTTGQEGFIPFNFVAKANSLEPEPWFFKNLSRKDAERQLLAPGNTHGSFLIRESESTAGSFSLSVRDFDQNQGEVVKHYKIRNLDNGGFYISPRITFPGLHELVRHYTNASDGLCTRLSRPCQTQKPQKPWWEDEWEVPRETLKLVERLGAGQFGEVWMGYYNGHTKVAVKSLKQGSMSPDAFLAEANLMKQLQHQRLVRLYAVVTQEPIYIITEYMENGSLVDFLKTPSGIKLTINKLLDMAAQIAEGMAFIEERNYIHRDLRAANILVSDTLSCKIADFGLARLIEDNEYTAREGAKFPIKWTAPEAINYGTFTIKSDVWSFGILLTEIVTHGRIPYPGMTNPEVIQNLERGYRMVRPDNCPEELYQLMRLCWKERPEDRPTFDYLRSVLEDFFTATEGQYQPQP

CN[C@H](CC(C)C)C(=O)N[C@H]1C(=O)N[C@@H](CC(N)=O)C(=O)N[C@H]2C(=O)N[C@H]3C(=O)N[C@H](C(=O)N[C@H](C(=O)O)c4cc(O)cc(O)c4-c4cc3ccc4O)[C@H](O)c3ccc(c(Cl)c3)Oc3cc2cc(c3O[C@@H]2O[C@H](CO)[C@@H](O)[C@H](O)[C@H]2O[C@H]2C[C@](C)(N)[C@H](O)[C@H](C)O2)Oc2ccc(cc2Cl)[C@H]1O [VANCOMYCIN]
Not Active: IC50 [1] | IC50 [2] | IC50 (B2 bradykinin receptor) | IC50 [3] | Ki [3] | IC50 (Progesterone receptor) | IC50 [4] | IC50 [5] | Ki [5] | IC50 (Interstitial collagenase)

COc1ccc(C(CN(C)C)C2(O)CCCCC2)cc1 (stereo unspecified) [VENLAFAXINE]
Not Active: IC50 [1] | IC50 [2] | IC50 (B2 bradykinin receptor) | IC50 [3] | Ki [3] | IC50 (Progesterone receptor) | IC50 [4] | IC50 [5] | Ki [5] | IC50 (Interstitial collagenase)

IVERMECTIN
Not Active: IC50 [1] | Ki [1] | IC50 [2] | Ki [2] | IC50 (B2 bradykinin receptor) | Ki (B2 bradykinin receptor) | IC50 [3] | Ki [3] | IC50 (Progesterone receptor) | Ki (Progesterone receptor) | IC50 [4] | Ki [4] | IC50 [5] | Ki [5] | IC50 (Interstitial collagenase) | Ki (Interstitial collagenase)
